In patent US20060263895A1, “Method for monitoring the stereoselectivity and relative rate of organic chemical reactions” (priority 2005, published 2006):

Experiments:
[1] = [total 1,2-propanediol] in aqueous ISES layer by 1H NMR; conditions: for [diol] (mM) @ 15 min: aqueous ISES layer, 1H NMR, t = 15 min; for Norm.: normalized to the catalyst derived from salen 3b (rate 1.0)
Protocol: The concentration of 1,2-propanediol in the aqueous layer was estimated under typical ISES conditions using 1H NMR spectroscopy. The bilayer was prepared as usual for double cuvette-ISES (Section V), but for the substitution of D2O for H2O in the buffer, and the elimination of the dehydrogenase enzymes. After 15 min, the aqueous layer (300 μL of 500 μL total) was withdrawn and mixed with a fresh solution of imidazole of known concentration (also 300 μL in D2O), as an internal concentration standard. Accumulation of the 1H NMR spectrum, followed by integration and quantitation, provided an experimental measure of [total diol] in the aqueous reporting layer at t=15 minutes for the catalyst under investigation. The observed diol concentrations for ten catalysts examined in this way are collected in Table S6, below. These have been normalized to the value for the catalyst derived from salen 3b (arbitrarily assigned a rate of 1.0).

[2] = HKR of (±)-propylene oxide under standard neat 'Jacobsen conditions' (NMR conversion, chiral HPLC ee); conditions: for NMR conv. (time) / % ee (HPLC): loading 0.25 mol %; for % ee of the 1,2-propanediol product, as observed by chiral HPLC (lower number): neat propylene oxide, 0.55 equiv. H2O, 0.25 mol % catalyst, 3 h reaction time
Protocol: Salens in the fully synthetic, 42 member focused library that led to catalysts with appreciable activity, as indicated by double cuvette-ISES, were also evaluated ‘outside of the cuvette,’ under conditions more typically employed in HKR reactions. Specifically, these Co(III)-salen catalysts were evaluated in the HKR of (±)-propylene oxide, under neat conditions, similar to those described by Jacobsen and coworkers. Reactions were arbitrarily stopped after 3 hours, to obtain the enantiopurity of the 1,2-propanediol product at relatively early reaction times, for comparison with ISES predictions.
A typical procedure follows: To the Co(III)-salen catalyst derived from 7e (5.4 mg, 5.4 μmol, 0.25 mol %) and (±)-propylene oxide (125 mg, 2.15 mmol) at 0° C., was added water (21 μL, 1.18 mmol, 0.55 equiv.). The reaction mixture was securely capped, and allowed to warm to room temperature and stirred, most commonly for a total of 3 hours. Percent conversion at 3 hours was evaluated by 1H NMR of an aliquot (cooled to 0° C. for the transfer), in CDCl3. In most of these cases, the conversion was low enough after 3 hours, that the unreacted epoxide (bp 32° C.) was of relatively low ee, and was therefore removed by evaporation under aspirator vacuum. When the conversion was less than 5% by NMR after 3 hours, reactions were continued for longer times.
Upon termination of the reaction, the diol product was isolated by Kugelrohr distillation (˜120° C.-oven temp; 0.1 torr). To determine ee, the isolated diol was derivatized using p-bromobenzoyl imidazole (2.2 equiv.) in THF in the presence of NaH (4 equiv.) at room temperature for 5 min. The bis(p-bromobenzoate) esters obtained following sequential washes with 1 N HCl and saturated sodium bicarbonate, were of sufficient purity to be used directly for chiral HPLC analysis (Chiralcel OD, 99% […]). [drawing 23] [drawing 24] [drawing 25] [drawing 26] [drawing 27]

[3] = Double cuvette-ISES (in situ enzymatic screening) of Co(III)-salen mediated HKR of (±)-propylene oxide; conditions: for % ee of the 1,2-propanediol product, as predicted by double-cuvette ISES (upper number): bilayer of pH 8.6 buffer over 7.2 M epoxide in CHCl3, 0.25 mol % catalyst, 15-35 min, + = (S), − = (R)
Protocol: Aqueous reporting layers. containing TBADH/NADP+ (cuvette 1) and HLADH/NAD+ (cuvette 2), respectively, are then added. The increase in absorbance at 340 nm can be followed for several such sets in parallel by UV-vis spectrophotometry. The kinetic data are then used to make the double-cuvette ISES predictions.
A general procedure for double cuvette-ISES to estimate both enantioselectivities and relative rates for an array of catalysts being screened in parallel is presented below. The hydrolytic kinetic resolution (HKR) of (±) propylene oxide was chosen as model reaction.
Typically, quartz cuvettes with one cm light paths and with nominal one mL volumes were used. For each catalyst, a two cuvette screen was performed, with cuvette A containing HLADH, as (S)-propanediol-selective reporting enzyme, and cuvette B containing TBADH, as a (R)-propanediol-selective reporting enzyme. For each cuvette, the final volume was 800 μL (300 μL of organic layer; 500 μL of aqueous layer).
Both cuvettes A and B had the following composition: 150 μL (2.15 mmol) of (±)-propylene oxide (7.2 M in organic layer), 150 μL of CHCl3 and 0.25 mol % Co(III)-salen catalyst. The total organic layer volume was maintained as 300 μL in all catalyst screens.
(i) Cuvette A: 0.35 U HLADH (17.6 μL from a stock solution (0.02U/μL)), 7.2 mM β-NAD+(16.5 μL from a 220 mM stock) and 465.8 μL of 50 mM sodium pyrophosphate buffer, pH 8.8. The final pH was 8.6.
(ii) Cuvette B: 0.35 U TBADH (15.8 μL from a stock solution (0.022U/μL)) of, 2.2 mM β-NADP+ (5 μL from a 220 mM stock) and 479.5 μL of 50 mM sodium pyrophosphate buffer, pH 8.8. The final pH was 8.6. The total volume of the aqueous layer was maintained as 500 μL in both cuvettes in all ISES experiments.
C. Step by Step Protocol: A catalyst stock solution (22 μmol of catalyst in 620 μL CHCl3) was made up in a 1.5 ml microcentrifuge tube, and stored on ice, along with a stock of (±)-propylene oxide, in a separate tube. The organic layers were prepared by briefly vortexing 150 μL (5.4 μmol, 0.25 mol %) of the catalyst stock in CHCl3 with 150 μL (2.15 mmol) of (±)-propylene oxide in iced microcentrifuge tubes. These were loaded into 1 mL quartz cuvettes using precooled (refrigerator), disposable 1 mL syringes. The aqueous layers were then layered on top of the organic layers, by syringe, down the walls of the cuvette.

[4] = reaction stopped at the time given (mostly 3 h), + = (S), − = (R)

Molecule	NMR conv. (time) ([2]; 3 h)	% ee (HPLC) [2, 4]	% ee of the 1,2-propanediol product, as observed by chiral HPLC (lower number) ([2]; + = (S), − = (R))	% ee of the 1,2-propanediol product, as predicted by double-cuvette ISES (upper number) [3]	other results
CC(C)(C)c1cc(C=NC[C@H](Cc2ccc3ccccc3c2)N=Cc2cc(C(C)(C)C)cc(C(C)(C)C)c2O)c(O)c(C(C)(C)C)c1 [Salen 5a, N,N′-Bis(3′,5′-di-tert-butylsalicylidene)-(1S)-(β-naphthylmethyl)-1,2-ethylenediamine]	36 (3 h) %	+66 (S) % ee	+66 % ee	+87 % ee	[diol] (mM) @ 15 min [1]: 52.5 mM; Norm. [1]: 0.55
CC(C)(C)c1cccc(C=NC[C@H](Cc2ccc3ccccc3c2)N=Cc2cccc(C(C)(C)C)c2O)c1O [Salen 5b, N,N′-Bis(3′-tert-butylsalicylidene)-(1S)-(β-naphthylmethyl)-1,2-ethylenediamine]	45 (3 h) %	+68 (S) % ee	+68 % ee	+65 % ee	[diol] (mM) @ 15 min [1]: 75.5 mM; Norm. [1]: 0.79
CC(C)(C)c1cccc(C=NC[C@H](Cc2ccccc2)N=Cc2cccc(C(C)(C)C)c2O)c1O [Salen 3b, N,N′-Bis(3′-tert-butylsalicylidene)-(1S)-benzyl-1,2-ethylenediamine]		+57 (S) % ee	+57 % ee	+70 % ee	[diol] (mM) @ 15 min [1]: 96 mM; Norm. [1]: 1.0
CO[C@H]1[C@@H]2OC(C)(C)O[C@@H]2COC1(CN=Cc1cc(C(C)(C)C)cc(C(C)(C)C)c1O)N=Cc1cc(C(C)(C)C)cc(C(C)(C)C)c1O (stereo partly shown) [Salen 6a, N,N′-Bis(3′,5′-di-tert-butylsalicylidene)-3-O-methyl-4,5-O-isopropylidene-1,2-dideoxy-Dfructopyranosyl-1,2-diamine]					NMR conv. (time) ([2]; 3 h, listed as 6a*): 12 (3 h) %; % ee (HPLC) ([2]; reaction stopped at the time printed in the row (mostly 3 h), + = (S), − = (R), listed as 6a*): +69 (S) % ee; % ee of the 1,2-propanediol product, as observed by chiral HPLC (lower number) ([2]; + = (S), − = (R), listed as 6a*): +69 % ee; % ee of the 1,2-propanediol product, as predicted by double-cuvette ISES (upper number) ([3]; listed as 6a*): +77 % ee
Oc1c(C=NC[C@@H](N=Cc2ccc3ccccc3c2O)c2ccccc2)ccc2ccccc12 [Salen 2d, N,N′-Bis(1′-hydroxy-2′-naphthylidene)-(1S)-phenyl-1,2-ethylenediamine]		−54 (R) % ee	−54 % ee	−15 % ee	NMR conv. (time) ([2]; 22 h): 19 (22 h) %
Oc1c(I)cc(I)cc1C=NC[C@H](Cc1ccc2ccccc2c1)N=Cc1cc(I)cc(I)c1O [Salen 5e, N,N′-Bis(3′,5′-diiodosalicylidene)-(1S)-(β-naphthylmethyl)-1,2-ethylenediamine]	3 (3 h) %	−5 (R) % ee	−5 % ee	+35 % ee	
Oc1ccc2ccccc2c1C=NC[C@H](Cc1ccccc1)N=Cc1c(O)ccc2ccccc12 [Salen 3c, N,N′-Bis(2′-hydroxy-1′-naphthylidene)-(1S)-benzyl-1,2-ethylenediamine]					NMR conv. (time) ([2]; time not given): none obs; ISES signal ([3]; over 35 min): § (These catalysts gave ISES signals <20 mAbs min−1 over 35 min.)
Oc1c(I)cc(I)cc1C=NC[C@H](Cc1cccc2ccccc12)N=Cc1cc(I)cc(I)c1O [Salen 4e, N,N′-Bis(3′,5′-diiodosalicylidene)-(1S)-(α-naphthylmethyl)-1,2-ethylenediamine]		+14 (S) % ee	+14 % ee	+43 % ee	NMR conv. (time) ([2]; 24 h): 6 (24 h) %; ISES rate in the HLADH cuvette ([3]; over 35 min): 18.1 mAbs min−1
CO[C@H]1[C@@H]2OC(C)(C)O[C@@H]2COC1(CN=Cc1cccc(C(C)(C)C)c1O)N=Cc1cccc(C(C)(C)C)c1O (stereo partly shown) [Salen 7b, N,N′-Bis(3′-tert-butylsalicylidene)-3-O-methyl-4,5-O-isopropylidene-1,2-dideoxy-Dfructopyranosyl-1,2-diamine]	9 (3 h) %	−40 (R) % ee	−40 % ee	−28 % ee	
Oc1c(I)cc(I)cc1C=NC[C@@H](N=Cc1cc(I)cc(I)c1O)c1ccccc1 [Salen 2e, N,N′-Bis(3′,5′-diiodosalicylidene)-(1S)-phenyl-1,2-ethylenediamine]	26 (3 h) %	−41 (R) % ee	−41 % ee	+4 % ee	
N,N′-Bis(3′-tert-butylsalicylidene)-[1R-(1α,2α,5α)]-2-amino-7,7-dimethyl-2-bicyclo[3.3.1]heptaneethanamine [Salen 1b]		+75 (S) % ee	+75 % ee	+68 % ee	
CC1(C)CCN2CCC(C)(C)c3c(O)c(C=NC[C@@H](N=Cc4cc5c6c(c4O)C(C)(C)CCN6CCC5(C)C)c4ccccc4)cc1c32 [Salen 2g, N,N′-Bis(8′-hydroxy-1′,1′,7′,7′-tetramethyljulolidinyl-9′-methylidene)-(1S)-phenyl-1,2-ethylenediamine]			−71 % ee	−41 % ee	% ee (HPLC) ([2]; @3 h): −71@3 h, % ee; % ee (HPLC) ([2]; @20 h): −65@20 h (R) % ee; ISES rate in the HLADH cuvette ([3]; over 35 min): 14.9 mAbs min−1
